What was measured:
Format in all cases: in vivo
[1] = tested on: southern armyworm (Spodopetra eridania Cramer); test: Mite/insect screen, sprayed squash leaves (SAW); conditions: Spodoptera eridania, percent mortality, read-out: SAW RESULTS %; for mortality at 400 ppm: spray rate 400 ppm
Outline: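 Acetone/alcohol (50:50) + emulsifier blends 23 g/L and 13 g/L; water dilution to test concs. Spray both leaf surfaces to runoff, dry 1 h. For armyworm, 2 excised uninfested leaves into Petri dish with larvae. Readout: % mortality, phytotoxicity.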

[2] = tested on: melon aphids (Aphis gossypii Glover); test: Mite/insect screen, sprayed squash cotyledons (MA); conditions: Aphis gossypii, percent mortality, read-out: MA RESULTS %; for mortality at 400 ppm: spray rate 400 ppm
Outline: (§1)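 Compounds dissolved in acetone/alcohol with TOXIMUL R/S emulsifiers, diluted with water to test concentrations, and sprayed to runoff on both leaf surfaces at 10 psi, then dried 1 h. Excised treated squash leaves given southern armyworm larvae; aphid and spider mite tests on sprayed squash cotyledons. Percent mortality and phytotoxicity scored after standard exposure.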

[3] = tested on: Pyricularia oryzae (rice blast); conditions: disease control rating, foliar spray, host rice; 400 ppm (+++ at 100 ppm)
[4] = tested on: Pseudoperonospora cubensis (downy mildew); test: Greenhouse Test 1, foliar spray fungicide screen (DOWN MDEW), host squash; conditions: disease control rating, 400 ppm (+++ at 100 ppm)
[5] = tested on: Southern corn rootworm (Diabrotica undecimpuctata howardi Barber); test: Mite/insect screen, soil treatment (CRW); conditions: Diabrotica, percent mortality, soil treatment, read-out: CRW RESULTS %; for mortality at 24 ppm: CRW rate 24.00 ppm
Outline: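 Five 2–3 instar larvae were placed on dry sandy soil with a presoaked corn seed after the soil had received 1 mL of compound solution and dried 6–12 h; cups were kept capped at 23°C. Mortality (%) and phytotoxicity were read after standard exposure. Formulation: acetone/alcohol with emulsifiers, water-diluted.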

[6] = tested on: Puccinia recondita tritici (leaf rust); test: Greenhouse Test 1, foliar spray fungicide screen (LEAF RUST), host wheat; conditions: disease control rating, 400 ppm (+++ at 100 ppm)
[7] = tested on: Botrytis cinerea (gray mold); test: Greenhouse Test 1, foliar spray fungicide screen (GRAY MOLD), host grape berries; conditions: disease control rating, 400 ppm (+++ at 100 ppm)
[8] = tested on: Erysiphe graminis tritici (powdery mildew); test: Greenhouse Test 1, foliar spray fungicide screen (POWD MDEW), host wheat; conditions: disease control rating, 400 ppm (+++ at 100 ppm)
[9] = tested on: Twospotted spider mites (Tetranychus urticae Koch); test: Mite/insect screen, sprayed squash cotyledons (SM); conditions: Tetranychus urticae, percent mortality, read-out: SM RESULTS %; for mortality at 400 ppm: spray rate 400 ppm
Outline: as §1

Structure (SMILES)	mortality at 400 ppm [1] [%]	mortality at 400 ppm [2] [%]	RICE BLAST [3]	DOWN MDEW [4]	mortality at 24 ppm [5] [%]	LEAF RUST [6]	GRAY MOLD [7]	POWD MDEW [8]	mortality at 400 ppm [9] [%]	mortality at 200 ppm ([1]; spray rate 200 ppm) [%]	mortality at 200 ppm ([2]; spray rate 200 ppm) [%]	mortality at 12 ppm ([5]; CRW rate 12.00 ppm) [%]	mortality at 200 ppm ([9]; spray rate 200 ppm) [%]
Fc1cccc2c(OCCc3ccc4ccccc4c3)ncnc12 [Example 66, 8-fluoro-4-[2-(2-naphthyl)ethoxy]quinazoline]	0	0	+++ (+++ = 90-100% control at 100 ppm)	+++ (+++ = 90-100% control at 100 ppm)	0	+++ (+++ = 90-100% control at 100 ppm)	- (- = 0-19% control at 400 ppm)	+++ (+++ = 90-100% control at 100 ppm)	0				
c1ccc(C(COc2ncnc3ccccc23)c2ccccc2)cc1 [Example 67, 4-(2,2-diphenylethoxy)quinazoline]	0	30	+ (+ = 20-89% control at 400 ppm)	++ (++ = 90-100% control at 400 ppm)	0	- (- = 0-19% control at 400 ppm)	- (- = 0-19% control at 400 ppm)	+ (+ = 20-89% control at 400 ppm)	60				
c1ccc(Oc2cccc(CCOc3ncnc4ccccc34)c2)cc1 [Example 68, 4-[2-(3-phenoxyphenyl)ethoxy]quinazoline]	0	100	+++ (+++ = 90-100% control at 100 ppm)	+++ (+++ = 90-100% control at 100 ppm)	0	+++ (+++ = 90-100% control at 100 ppm)	- (- = 0-19% control at 400 ppm)	+++ (+++ = 90-100% control at 100 ppm)	90				
c1ccc(Oc2ccc(CCOc3ncnc4ccccc34)cc2)cc1 [Example 69, 4-[2-(4-phenoxyphenyl)ethoxy]quinazoline]	100	0	+++ (+++ = 90-100% control at 100 ppm)	+++ (+++ = 90-100% control at 100 ppm)	0	+++ (+++ = 90-100% control at 100 ppm)	- (- = 0-19% control at 400 ppm)	+++ (+++ = 90-100% control at 100 ppm)	100				
Fc1cccc2c(OCCC3CCCCC3)ncnc12 [Example 70, 4-(2-cyclohexylethoxy)-8-fluoroquinazoline]	0	0	+++ (+++ = 90-100% control at 100 ppm)	+ (+ = 20-89% control at 400 ppm)	0	+ (+ = 20-89% control at 400 ppm)	- (- = 0-19% control at 400 ppm)	+ (+ = 20-89% control at 400 ppm)	80				
COc1ccc(CCOc2ncnc3ccccc23)cc1OC [Example 73, 4-[2-(3,4-dimethoxyphenyl)ethoxy]quinazoline]	0	0	- (- = 0-19% control at 400 ppm)	+++ (+++ = 90-100% control at 100 ppm)	100	+++ (+++ = 90-100% control at 100 ppm)	- (- = 0-19% control at 400 ppm)	++ (++ = 90-100% control at 400 ppm)	0				
Cc1ccc(CCNc2ncnc3c(F)cccc23)cc1 [Example 77, 8-fluoro-N-[2-(4-methylphenyl)ethyl]-4-quinazolinamine]	0	0	++ (++ = 90-100% control at 400 ppm)	- (- = 0-19% control at 400 ppm)	0	++ (++ = 90-100% control at 400 ppm)	- (- = 0-19% control at 400 ppm)	- (- = 0-19% control at 400 ppm)	0	0	0	0	0

From patent publication EP0326329B1, “Quinazoline derivatives useful as insecticides” (Dow AgroSciences LLC, priority 1988, dated 1989)
